Experimental data taken from patent publication US20220137057A1 (priority 2019, published 2022).
Where two headings read alike, the source gives them in different places.

Key:
[1] = test system: Pyricularia oryzae, Strain J1; type: cell-based; conditions: for Fractional contribution of metabolite RI 3507: control 0.09 to 0.12; for Position of enzymatic inhibition in the metabolic sequence (breaking point): from increase/decrease of label incorporation, FIG. 3; for Non-polar metabolites changed (number of metabolite MIDs) / Polar metabolites changed (number of metabolite MIDs): treatment vs control; for Non-polar metabolites changed (number of metabolite MIDs): threshold 2% M0 difference, non-polar phase; for Polar metabolites changed (number of metabolite MIDs): threshold 5% M0 difference, polar phase
ergosterol biosynthesis = experiment: Metabolomics (metabolite profiling) of fenpropidin treatment, FIG. 5; type: cell-based; conditions: samples 0.5, 2, 6 and 48 hours after treatment
Lemna paucicostata = conditions: in vivo

SMILES	Mode-of-action pinpointed by MIAMI [1]	Fractional contribution of metabolite RI 3507 ([1]; 2 hours after treatment)	Fractional contribution of metabolite RI 3507 ([1]; 6 hours after treatment)	Position of enzymatic inhibition in the metabolic sequence (breaking point) [1]	Non-polar metabolites changed (number of metabolite MIDs) [1]	Polar metabolites changed (number of metabolite MIDs) [1]	Change in ergosterol (metabolomics, fold-change to control) (ergosterol biosynthesis)	Change in fractional contribution of differentially labeled metabolites (Lemna paucicostata)	Mode-of-action indicated by MIAMI (Lemna paucicostata)
Fc1ccc([C@]2(Cn3cncn3)O[C@H]2c2ccccc2Cl)cc1 (racemic) [fung 2, Epoxiconazole]	a hand full of potential targets in steroid biosynthesis	0.17	0.37	between RI 3569 and RI 3309	34	26	–	–	–
CC(Cc1ccc(C(C)(C)C)cc1)CN1CCCCC1 (stereo not drawn) [fung 1, Fenpropidin]	a hand full of potential targets in steroid biosynthesis	0.16	0.18	between metabolites RI 3507 and RI 3309	34	19	reductions in ergosterol, however not significantly after 6 hours	–	–
CC(C)C1(C)N=C(c2ncccc2C(=O)O)NC1=O (stereo not drawn) [herbicide four, Imazapyr]	–	–	–	–	–	–	–	increase in fractional contribution, except for valine	mode-of-action in the valine biosynthesis pathway
